Experimental findings from patent US20240317752A1, “6-SUBSTITUTED-9H-PURINE DERIVATIVES AND RELATED USES” (Black Diamond Therapeutics, Inc., priority 2021, published 2024) are described below.

Structures are written as SMILES. A value given as a limit tells only on which side of the number the result lay.

In the assay the target is T1, BaF3 BRAF-KIAA1549 fusion cells (Homo sapiens, UniProt P15056).
T1 construct: The BRAF-KIAA1549 fusion mutant was subcloned into pMXs-IRES-Blasticidin (RTV-016, Cell Biolabs, San Diego, CA); fused on or other part: Q9HCM3 (UPF0606 protein KIAA1549)
T1 sequence (P15056 whole entry, change not shown, the tested form may be a part): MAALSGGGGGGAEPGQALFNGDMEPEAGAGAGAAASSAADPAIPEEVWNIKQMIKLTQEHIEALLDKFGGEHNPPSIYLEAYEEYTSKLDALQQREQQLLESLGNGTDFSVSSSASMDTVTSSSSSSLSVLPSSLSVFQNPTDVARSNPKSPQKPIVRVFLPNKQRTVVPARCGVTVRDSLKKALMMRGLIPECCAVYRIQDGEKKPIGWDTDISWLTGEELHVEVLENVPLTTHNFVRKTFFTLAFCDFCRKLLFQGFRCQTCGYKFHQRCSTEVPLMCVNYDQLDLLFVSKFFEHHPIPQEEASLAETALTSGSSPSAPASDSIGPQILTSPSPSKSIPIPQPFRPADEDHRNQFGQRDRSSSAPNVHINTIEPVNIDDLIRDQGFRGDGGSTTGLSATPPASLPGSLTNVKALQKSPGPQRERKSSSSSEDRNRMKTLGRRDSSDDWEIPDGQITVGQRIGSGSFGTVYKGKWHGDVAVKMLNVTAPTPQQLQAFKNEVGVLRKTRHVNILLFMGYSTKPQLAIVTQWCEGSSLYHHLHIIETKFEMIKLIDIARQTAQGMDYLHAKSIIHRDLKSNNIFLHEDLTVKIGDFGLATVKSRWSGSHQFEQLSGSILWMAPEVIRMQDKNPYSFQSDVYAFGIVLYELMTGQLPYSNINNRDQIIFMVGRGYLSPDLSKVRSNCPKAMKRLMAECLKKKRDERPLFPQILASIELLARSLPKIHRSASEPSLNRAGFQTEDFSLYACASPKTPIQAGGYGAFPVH
Description: BaF3 BRAF-KIAA1549 fusion cell proliferation assay (CellTiterGlo). The class given is cell-based. Conditions: 96 hours incubation, potency code. The protocol:
Retroviral Production: The BRAF-KIAA1549 fusion mutant was subcloned into pMXs-IRES-Blasticidin (RTV-016, Cell Biolabs, San Diego, CA). Retrovirus was produced by transfection of HEK 293T cells with the retroviral BRAF mutant expression vector pMXs-IRES-Blasticidin (RTV-016, Cell Biolabs), pCMV-Gag-Pol vector and pCMV-VSV-G-Envelope vector. Briefly, HEK 293T cells were plated in Poly-D-lysine coated 6-well plate (2.5×10^5 cells per well) and incubated overnight. The next day, retroviral plasmids (1 μg of BRAF-KIAA fusion mutant, 0.32 μg of pCMV-Gag-Pol and 0.165 μg pCMV-VSV-G) were mixed in 300 μL of Optimem (31985, Life Technologies). The mixture was incubated at room temperature for 5 minutes and then added to Optimem containing transfection reagent Lipofectamine (11668, Invitrogen) and incubated for 20 minutes. The mixture was then added dropwise to HEK 293T cells. The next day the medium was replaced with fresh culture medium and retrovirus was harvested at 24 hours.
Generation of BRAF-KIAA1549 fusion stable cell line: BaF3 cells were plated in V-bottom 96 well plate (COSTAR #3894) in 80 μL of RPMI/10% FBS and 0.01 ng/ml mouse IL-3; supplemented with 8 μg/mL polybrene (4×10^4 cells/well). Cells were transduced with 20 μL of BRAF-KIAA1549 fusion viral supernatant by centrifuging for 30 minutes at 1000 rpm. Cells were placed in a 37° C. incubator overnight. Next day 100 μL of RPMI/10% FBS and 0.01 ng/ml mouse IL-3 was added. After 24 hours, 100 μL of cells were transferred to a 24 well plate containing 900 μL of RPMI/10% FBS and 15 μg/mL Blasticidin. Contents of the 24 well plate were sampled for cell viability via CellTiterGlo (Promega) over a 2-week period.
Assay for cell proliferation: BaF3 BRAF-KIAA1549 fusion cells were resuspended at 1.5×10^5c/mL in RPMI containing 10% Heat Inactivated FBS, 1% L-glutamine and dispensed in duplicate ([…]) into 384 well plates. To determine the effect of compound on cell proliferation, BaF3 BRAF-KIAA1549 fusion cells were incubated for 96 hours in the presence of vehicle control (DMSO) or compound at varying concentrations. Inhibition of cell growth was determined by luminescent quantification (Envision by Perkin Elmer) of intracellular ATP content using CellTiterGlo (Promega), according to the protocol provided by the manufacturer. To determine the IC50 values, the vehicle-treated cells were normalized as viable cells and analyzed using the CDD Vault, Collaborative Drug Discovery, Burlingame, CA (the Levenberg-Marquardt algorithm; Levenberg, K., […]; Marquardt, D., 1963).
Tables A1 and A2 assign each compound a code for potency in the BaF3 BRAF-KIAA1549 fusion cell proliferation assay: A, B, C, or D. According to the code, A represents an IC50 value <20 nM; B represents an IC50 value ≥20 nM and <100 nM; C represents an IC50 value ≥100 nM and <500 nM; and D represents an IC50 value ≥500 nM.
A general note: ATP-based viability assays read luminescence as a measure of living cells.

A word on the GI50: it is the concentration giving 50% growth inhibition. The low end stands for more potent growth inhibition, the high end for less potent growth inhibition. The compound `Cc1ccc(NC(=O)c2ccnc(C3CC3)c2)cc1Nc1ncccc1-c1ncnc2[nH]cnc12` [Compound I-19, N-(3-((3-(9H-purin-6-yl)pyridin-2-yl)amino)-4-methylphenyl)-2-cyclopropylisonicotinamide] returned a GI50 of less than 20 nM.

Compound `O=C(Nc1ccc(F)c(Nc2ncccc2-c2ncnc3[nH]cnc23)c1)c1cc(C(F)(F)F)ccn1` [Compound I-20] gave a GI50 of 20 to 100 nM. The figure for `O=C(Nc1ccc(Cl)c(Nc2ncccc2-c2ncnc3[nH]cnc23)c1)c1cc(C(F)(F)F)ccn1` [Compound I-21, N-(3-(3-(9H-purin-6-yl)pyridin-2-ylamino)-4-chlorophenyl)-4-(trifluoromethyl)picolinamide] is 20 to 100 nM; for `Cc1ccc(NC(=O)c2ccc(Cl)c(C#N)c2)cc1Nc1ncccc1-c1ncnc2[nH]cnc12` [Compound I-22, N-(3-((3-(9H-purin-6-yl)pyridin-2-yl)amino)-4-methylphenyl)-4-chloro-3-cyanobenzamide] it is less than 20 nM. Regarding `Cc1ccc(NC(=O)c2ccc(C#N)cc2)cc1Nc1ncccc1-c1ncnc2[nH]cnc12` [Compound I-26, N-(3-((3-(9H-purin-6-yl)pyridin-2-yl)amino)-4-methylphenyl)-4-cyanobenzamide], the GI50 was 100 to 500 nM. Compound `Cc1ccc(C(=O)Nc2ccc(C)c(Nc3ncccc3-c3ncnc4[nH]cnc34)c2)cc1` [Compound I-27, N-(3-((3-(9H-purin-6-yl)pyridin-2-yl)amino)-4-methylphenyl)-4-methylbenzamide] gave a GI50 of 20 to 100 nM. The figure for `Cc1ccc(NC(=O)C23CC(Cl)(C2)C3)cc1Nc1ncccc1-c1ncnc2[nH]cnc12` [Compound I-28, N-(3-(3-(9H-purin-6-yl)pyridin-2-ylamino)-4-methylphenyl)-3-chlorobicyclo[1.1.1]pentane-1-carboxamide] is no less than 500 nM.

Compound `Cc1c(F)cc(NC(=O)c2cc(C(F)(F)F)ccn2)cc1Nc1ncccc1-c1ncnc2[nH]cnc12` [Compound I-29, N-(3-(3-(9H-purin-6-yl)pyridin-2-ylamino)-5-fluoro-4-methylphenyl)-4-(trifluoromethyl)picolinamide] came in with a concentration for 50% growth inhibition (GI50) of 20 to 100 nM. Take `Cc1ccc(C(=O)Nc2cncc(C(F)(F)F)c2)cc1Nc1ncccc1-c1ncnc2[nH]cnc12` [Compound I-30, 3-((3-(9H-purin-6-yl)pyridin-2-yl)amino)-4-methyl-N-(5-(trifluoromethyl)pyridin-3-yl)benzamide]: the 50% growth inhibitory concentration (GI50) was less than 20 nM. On to `C#Cc1ccc(C(=O)Nc2ccc(C)c(Nc3ncccc3-c3ncnc4[nH]cnc34)c2)cc1` [Compound I-31, N-(3-((3-(9H-purin-6-yl)pyridin-2-yl)amino)-4-methylphenyl)-4-ethynylbenzamide], for which the concentration for 50% growth inhibition (GI50) was less than 20 nM. For `Cc1ccc(NC(=O)c2ccnc(C3COC3)c2)cc1Nc1ncccc1-c1ncnc2[nH]cnc12` [Compound I-32, N-(3-((3-(9H-purin-6-yl)pyridin-2-yl)amino)-4-methylphenyl)-2-(oxetan-3-yl)isonicotinamide] the value was less than 20 nM.

With `Cc1ccc(NC(=O)c2ccc(C(F)(F)F)c(Cl)c2)cc1Nc1ncccc1-c1ncnc2[nH]cnc12` [Compound I-33, N-(3-((3-(9H-purin-6-yl)pyridin-2-yl)amino)-4-methylphenyl)-3-chloro-4-(trifluoromethyl)benzamide], the concentration for 50% growth inhibition (GI50) was in the range of 20 to 100 nM. On to `Cc1ccc(C(=O)Nc2cc(C(F)(F)F)ccn2)cc1Nc1ncccc1-c1ncnc2[nH]cnc12` [Compound I-34, 3-((3-(9H-purin-6-yl)pyridin-2-yl)amino)-4-methyl-N-(4-(trifluoromethyl)pyridin-2-yl)benzamide], for which the concentration for 50% growth inhibition (GI50) was in the range of 20 to 100 nM. For `Cc1ccc(C(=O)Nc2ccnc(C(F)(F)F)c2)cc1Nc1ncccc1-c1ncnc2[nH]cnc12` [Compound I-35, 3-((3-(9H-purin-6-yl)pyridin-2-yl)amino)-4-methyl-N-(2-(trifluoromethyl)pyridin-4-yl)benzamide] the value was 20 to 100 nM.

Take `C#Cc1cc(C(=O)Nc2ccc(C)c(Nc3ncccc3-c3ncnc4[nH]cnc34)c2)ccc1Cl` [Compound I-36, N-(3-((3-(9H-purin-6-yl)pyridin-2-yl)amino)-4-methylphenyl)-4-chloro-3-ethynylbenzamide]: the GI50 was less than 20 nM.

As to `Cc1ccc(NC(=O)c2ccc(Cl)c(C(C)(C)C#N)c2)cc1Nc1ncccc1-c1ncnc2[nH]cnc12` [Compound I-37, N-(3-((3-(9H-purin-6-yl)pyridin-2-yl)amino)-4-methylphenyl)-4-chloro-3-(2-cyanopropan-2-yl)benzamide], the GI50 was 20 to 100 nM. For `Cc1ccc(NC(=O)c2ccc(Cl)c(C3(C#N)CC3)c2)cc1Nc1ncccc1-c1ncnc2[nH]cnc12` [Compound I-38, N-(3-((3-(9H-purin-6-yl)pyridin-2-yl)amino)-4-methylphenyl)-4-chloro-3-(1-cyanocyclopropyl)benzamide] the value was 20 to 100 nM; for `Cc1ccc(NC(=O)c2cc(C#N)c(Cl)cn2)cc1Nc1ncccc1-c1ncnc2[nH]cnc12` [Compound I-39, N-(3-((3-(9H-purin-6-yl)pyridin-2-yl)amino)-4-methylphenyl)-5-chloro-4-cyanopicolinamide], no less than 500 nM. `Cc1ncc(NC(=O)c2ccc(Cl)c(C#N)c2)cc1Nc1ncccc1-c1ncnc2[nH]cnc12` [Compound I-40, N-(5-((3-(9H-purin-6-yl)pyridin-2-yl)amino)-6-methylpyridin-3-yl)-4-chloro-3-cyanobenzamide] yielded a GI50 of no less than 500 nM. The figure for `COc1cc(C(=O)Nc2ccc(C)c(Nc3ncccc3-c3ncnc4[nH]cnc34)c2)ccc1Cl` [Compound I-41, N-(3-((3-(9H-purin-6-yl)pyridin-2-yl)amino)-4-methylphenyl)-4-chloro-3-methoxybenzamide] is less than 20 nM; for `Cc1ccc(NC(=O)c2ccc(C(F)(F)F)c(C#N)c2)cc1Nc1ncccc1-c1ncnc2[nH]cnc12` [Compound I-42, N-(3-((3-(9H-purin-6-yl)pyridin-2-yl)amino)-4-methylphenyl)-3-cyano-4-(trifluoromethyl)benzamide] it is less than 20 nM. The compound `Cc1ccc(C(=O)Nc2ccc(C)c(Nc3ncccc3-c3ncnc4[nH]cnc34)c2)cc1C#N` [Compound I-43, N-(3-((3-(9H-purin-6-yl)pyridin-2-yl)amino)-4-methylphenyl)-3-cyano-4-methylbenzamide] returned a GI50 of less than 20 nM.

Consider `Cc1ccc(NC(=O)CC2CCCC(C(F)(F)F)C2)cc1Nc1ncccc1-c1ncnc2[nH]cnc12` (stereo not drawn) [Compound I-47, N-(3-((3-(9H-purin-6-yl)pyridin-2-yl)amino)-4-methylphenyl)-2-(3-(trifluoromethyl)cyclohexyl)acetamide], for which the GI50 was less than 20 nM.

For `Cc1ccc(NC(=O)c2cnc(C)c(C#N)c2)cc1Nc1ncccc1-c1ncnc2[nH]cnc12` [Compound I-48, N-(3-(3-(9H-purin-6-yl)pyridin-2-ylamino)-4-methylphenyl)-5-cyano-6-methylnicotinamide], the GI50 was no less than 500 nM. Regarding `Cc1ccc(NC(=O)c2ccc(Cl)c(Cl)c2)cc1Nc1ncccc1-c1ncnc2[nH]cnc12` [Compound I-49, N-(3-(3-(9H-purin-6-yl)pyridin-2-ylamino)-4-methylphenyl)-3,4-dichlorobenzamide], the GI50 is less than 20 nM.

Compound `N#Cc1cc(C(=O)Nc2ccc(F)c(Nc3ncccc3-c3ncnc4[nH]cnc34)c2)ccc1Cl` [Compound I-50, N-(3-(3-(9H-purin-6-yl)pyridin-2-ylamino)-4-fluorophenyl)-4-chloro-3-cyanobenzamide] had a GI50 of 20 to 100 nM. On to `Cc1ccc(NC(=O)c2ccc(C)c(C#N)n2)cc1Nc1ncccc1-c1ncnc2[nH]cnc12` [Compound I-51, N-(3-(3-(9H-purin-6-yl)pyridin-2-ylamino)-4-methylphenyl)-6-cyano-5-methylpicolinamide], for which the GI50 was no less than 500 nM.
